Assay results taken from patent publication US10004701B2, “Methods and compositions for treating infection” (UNIVERSITY OF ROCHESTER, priority 2012, dated 2018).
Values after ≈ are worked out from the molar mass of the structure shown. Where two headings read alike, the source gives them in different places. Blank lines part the entries; values can stand above or below the compound they belong to.

Legend:
[1] = system: Klebsiella pneumoniae cKP1; assay: MIC testing; format: cell-based
Staphylococcus aureus = assay: MIC testing; format: cell-based
[2] = system: Acinetobacter baumannii 98-37-09; assay: MIC testing; format: cell-based; settings: 983709; Acinetobacter baumannii 98-37-09; read-out: MIC
[3] = system: Enterobacter cloacae PMD1001; assay: MIC testing; format: cell-based
Escherichia coli 8295 [4] = assay: MIC testing; format: cell-based
[5] = system: Pseudomonas aeruginosa PA01; assay: MIC testing; format: cell-based
Escherichia coli 8295 [6] = assay: AK assay 96-well format; format: cell-based
[7] = system: Enterococcus faecium 824-05; assay: MIC testing; format: cell-based; settings: 82405
[8] = system: Klebsiella pneumoniae cKP1; assay: AK assay 96-well format; format: cell-based
[9] = system: Enterobacter cloacae PMD1001; assay: AK assay 96-well format; format: cell-based
[10] = system: Pseudomonas aeruginosa PA01; assay: AK assay 96-well format; format: cell-based
E. faecium = assay: AK assay 384-well format, Prestwick library screening; format: cell-based, Enterococcus faecium; settings: for fold induction at 50 µM: Enterococcus faecium, 3 h, 50 μM final drug concentration, cutoff for positive-scoring molecules 3-fold increase, read-out: AK-based Prestwick Library Screening Results, E. faecium (increase in extracellular AK activity)
S. aureus = assay: Minimum Inhibitory Concentration (MIC) testing, terfenadine study; format: cell-based; settings: Staphylococcus aureus, 16 h
S. aureus DNA gyrase = target: T1, S. aureus DNA gyrase (Staphylococcus aureus, UniProt P0A0K8+P20831); assay: S. aureus DNA gyrase supercoiling assay (TopoGEN); format: biochemical
T1 construct: purchased TopoGEN
Procedure: Reactions were incubated at 37° C. for 30 min and then stopped by the addition of 10% SDS, filtered through 0.025 μm Millipore membrane filters in a 10 mM Tris-HCl buffer (pH 8), and electrophoresed in a 1% agarose TAE gel. Gels were stained with 0.5 μg/ml ethidium bromide and images were analyzed using densitometry (Image J, NIH).

E. cloacae = assay: AK assay 384-well format, Prestwick library screening; format: cell-based, Enterobacter cloacae; settings: Enterobacter cloacae, 3 h, 50 μM final drug concentration, cutoff for positive-scoring molecules 3-fold increase, read-out: AK-based Prestwick Library Screening Results, E. cloacae (increase in extracellular AK activity)
[11] = system: S. aureus strain USA300-0114; assay: as above; format: cell-based, Staphylococcus aureus; settings: Staphylococcus aureus, USA300, 3 h, 50 μM final drug concentration, cutoff for positive-scoring molecules 3-fold increase, read-out: AK-based Prestwick Library Screening Results, S. aureus (increase in extracellular AK activity)
[12] = system: A. baumannii strain 98-37-09; assay: as above; format: cell-based, Acinetobacter baumannii; settings: Acinetobacter baumannii, 983709, 3 h, 50 μM final drug concentration, cutoff for positive-scoring molecules 3-fold increase, read-out: AK-based Prestwick Library Screening Results, A. baumannii (increase in extracellular AK activity)
E. coli = assay: as above; format: cell-based, Escherichia coli; settings: Escherichia coli, 3 h, 50 μM final drug concentration, cutoff for positive-scoring molecules 3-fold increase, read-out: AK-based Prestwick Library Screening Results, E. coli (increase in extracellular AK activity)
K. pneumoniae = assay: as above; format: cell-based, Klebsiella pneumoniae; settings: Klebsiella pneumoniae, 3 h, 50 μM final drug concentration, cutoff for positive-scoring molecules 3-fold increase, read-out: AK-based Prestwick Library Screening Results, K. pneumoniae (increase in extracellular AK activity)
P. aeruginosa = assay: as above; format: cell-based, Pseudomonas aeruginosa; settings: for fold induction at 50 µM: Pseudomonas aeruginosa, 3 h, 50 μM final drug concentration, cutoff for positive-scoring molecules 3-fold increase, read-out: AK-based Prestwick Library Screening Results, P. aeruginosa (increase in extracellular AK activity)
[13] = Klebsiella pneumoniae cKP1, read-out: MIC
[14] = Staphylococcus aureus USA300-0114, read-out: MIC
[15] = Enterococcus faecium 824-05, read-out: MIC

SMILES: CC1(C)S[C@@H]2[C@H](NC(=O)[C@H](N)c3ccccc3)C(=O)N2[C@H]1C(=O)O [Ampicillin, ampicillin]
MIC ([1]; Klebsiella pneumoniae, CKP1): > 256 µg/mL | MIC (Staphylococcus aureus; Staphylococcus aureus): 2 µg/mL (≈ 5.72 µM) | MIC (Staphylococcus aureus; Staphylococcus aureus, USA300): > 256 µg/mL | MIC [2]: 256 µg/mL (≈ 733 µM) | MIC [3]: > 256 µg/mL | MIC (Escherichia coli 8295 [4]): 128 µg/mL (≈ 366 µM) | MIC [5]: > 256 µg/mL | Fold increase in AK signal (Escherichia coli 8295 [6]; treatment 0.5×MIC): 50 fold | Fold increase in AK signal (Escherichia coli 8295 [6]; treatment 1.0×MIC): 74 fold | MIC ([7]; Enterococcus faecium): > 256 µg/mL

SMILES: CO/N=C(\C(=O)N[C@@H]1C(=O)N2C(C(=O)O)=C(CSc3nc(=O)c(=O)[nH]n3C)CS[C@H]12)c1csc(N)n1 [Ceftriaxone, ceftriaxone]
MIC [1, 13]: 2 µg/mL (≈ 3.61 µM) | Fold increase in AK signal ([8]; treatment 0.5×MIC): 50 fold | Fold increase in AK signal ([8]; treatment 1.0×MIC): 55 fold | MIC (Staphylococcus aureus; Staphylococcus aureus): 2 µg/mL (≈ 3.61 µM) | MIC (Staphylococcus aureus; [14]): > 256 µg/mL | MIC [2]: 8 µg/mL (≈ 14.4 µM) | MIC ([3]; read-out: MIC): 2 µg/mL (≈ 3.61 µM) | MIC (Escherichia coli 8295 [4]; read-out: MIC): 2 µg/mL (≈ 3.61 µM) | MIC ([5]; read-out: MIC): 4 µg/mL (≈ 7.21 µM) | Fold increase in AK signal ([9]; treatment 0.5×MIC): 20 fold | Fold increase in AK signal ([9]; treatment 1.0×MIC): 17 fold | Fold increase in AK signal (Escherichia coli 8295 [6]; treatment 0.5×MIC): 51 fold | Fold increase in AK signal (Escherichia coli 8295 [6]; treatment 1.0×MIC): 76 fold | MIC [7, 15]: > 256 µg/mL | Fold increase in AK signal ([10]; treatment 0.5×MIC): 2 fold | Fold increase in AK signal ([10]; treatment 1.0×MIC): 14 fold

MIC [7, 15]: 8 µg/mL (≈ 19.7 µM)
SMILES: CCN(CC)CCOc1ccc(C(=C(Cl)c2ccccc2)c2ccccc2)cc1 [Clomiphene, clomiphene, reference compound]
activity in AK Prestwick screen (E. faecium; E. faecium, 50 μM, cutoff 3-fold increase in AK): identified

SMILES: CC(C)(C)c1ccc(C(O)CCCN2CCC(Cc3ccccc3)CC2)cc1 (stereo not drawn) [Compound 40, 4-(4-Benzylpiperidin-1-yl)-1-(4-(tert-butyl)phenyl)butan-1-ol]
MIC (S. aureus): 64 µg/mL (≈ 169 µM) | IC50 (S. aureus DNA gyrase): > 877 µM

SMILES: CC(C)(C)c1ccc(NCCCN2CCC(C(O)(c3ccccc3)c3ccccc3)CC2)cc1 [Compound 41, (1-(3-((4-(Tert-butyl)phenyl)amino)propyl)piperidin-4-yl)diphenylmethanol]
MIC (S. aureus): 8 µg/mL (≈ 17.5 µM) | IC50 (S. aureus DNA gyrase): 423 µM

SMILES: CC(C)(C)c1ccc(CCN2CCC(C(O)(c3ccccc3)c3ccccc3)CC2)cn1 [Compound 43, (1-(2-(6-(Tert-butyl)pyridin-3-yl)ethyl)piperidin-4-yl)diphenylmethanol]
MIC (S. aureus): 64 µg/mL (≈ 149 µM) | IC50 (S. aureus DNA gyrase): > 777 µM

SMILES: OC(c1ccccc1)(c1ccccc1)C1CCN(CCc2ccc(Cl)cc2)CC1 [Compound 44, (1-(4-Chlorophenethyl)piperidin-4-yl)diphenylmethanol]
MIC (S. aureus): 32 µg/mL (≈ 78.8 µM) | IC50 (S. aureus DNA gyrase): 640 µM

SMILES: NC[C@H]1O[C@H](O[C@H]2[C@H](O)[C@@H](O[C@H]3O[C@H](CO)[C@@H](O)[C@H](N)[C@H]3O)[C@H](N)C[C@@H]2N)[C@H](O)[C@@H](O)[C@@H]1O [Kanamycin, kanamycin]
MIC [1, 13]: 2 µg/mL (≈ 4.13 µM) | Fold increase in AK signal ([8]; treatment 0.5×MIC): 1 fold | Fold increase in AK signal ([8]; treatment 1.0×MIC): 1 fold | MIC (Staphylococcus aureus; Staphylococcus aureus): 16 µg/mL (≈ 33 µM) | MIC (Staphylococcus aureus; Staphylococcus aureus, USA300): > 256 µg/mL | MIC [2]: 2 µg/mL (≈ 4.13 µM) | MIC ([3]; read-out: MIC): 2 µg/mL (≈ 4.13 µM) | MIC (Escherichia coli 8295 [4]; read-out: MIC): 32 µg/mL (≈ 66 µM) | MIC ([5]; read-out: MIC): 256 µg/mL (≈ 528 µM) | Fold increase in AK signal ([9]; treatment 0.5×MIC): 1 fold | Fold increase in AK signal ([9]; treatment 1.0×MIC): 1 fold | Fold increase in AK signal (Escherichia coli 8295 [6]; treatment 0.5×MIC): 55 fold | Fold increase in AK signal (Escherichia coli 8295 [6]; treatment 1.0×MIC): 70 fold | MIC ([7]; Enterococcus faecium): > 256 µg/mL

SMILES: Cc1cc(NS(=O)(=O)c2ccc(N)cc2)no1 [Sulfamethoxazole, sulfamethoxazole]
MIC [1, 13]: > 256 µg/mL | fold induction at 50 µM (E. cloacae; 384-well format): 0.7 | fold induction at 50 µM ([11]; 384-well format): 0.7 | MIC (Staphylococcus aureus; Staphylococcus aureus): 2 µg/mL (≈ 7.9 µM) | MIC (Staphylococcus aureus; [14]): > 256 µg/mL | fold induction at 50 µM ([12]; 384-well format): 1.3 | MIC [2]: 8 µg/mL (≈ 31.6 µM) | fold induction at 50 µM (E. coli; 384-well format): 0.7 | fold induction at 50 µM (K. pneumoniae; 384-well format): 0.6 | MIC ([3]; read-out: MIC): > 256 µg/mL | MIC (Escherichia coli 8295 [4]; read-out: MIC): > 256 µg/mL | MIC ([5]; read-out: MIC): 256 µg/mL (≈ 1010 µM) | fold induction at 50 µM (E. faecium; 384-well format): 1 | MIC [7, 15]: > 256 µg/mL | fold induction at 50 µM (P. aeruginosa; 384-well format): 0.7

MIC [5]: did not elicit an antimicrobial response | MIC [7, 15]: 8 µg/mL (≈ 23.7 µM)
SMILES: CCCCCCCCNC(C)C(O)c1ccc(SC(C)C)cc1 (stereo not drawn) [Suloctidil, suloctidil, reference compound]
fold induction at 50 µM (E. cloacae; planktonic E. cloacae): 0.9 | fold induction at 50 µM ([11]; planktonic S. aureus): 2 | fold induction at 50 µM ([12]; planktonic A. baumannii): 4.1 | fold induction at 50 µM (E. coli; planktonic E. coli): 1.9 | fold induction at 50 µM (K. pneumoniae; planktonic K. pneumoniae): 2.5 | fold induction at 50 µM (E. faecium; planktonic E. faecium): 5.4 | activity in primary and confirmatory AK screens (P. aeruginosa; P. aeruginosa, 50 μM, cutoff 3-fold increase in AK): active | fold induction at 50 µM (P. aeruginosa; planktonic P. aeruginosa): 6.8
